Test results published in ChEMBL document CHEMBL1201862, “PubChem BioAssay data set” (2004).
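These data come from cells grown in 96-well plates and exposed to compound for 48 hours at five concentrations. GI50 is the concentration that inhibits growth by half.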 Calls of active or inactive are those of the source. Cut-off read from the data, not from the text of the source: active = GI50 up to about 1.1 µM and inactive = higher.

How the values were obtained:
Assay in all cases: NCI anticancer screen, dose series, 48 h
BT-549 = system: BT-549
DU-145 = system: DU-145
EKVX = system: EKVX
HOP-62 = system: HOP-62
IGROV-1 = system: IGROV-1
MCF7 = system: MCF7
MDA-MB-435 = system: MDA-MB-435
MDA-N = system: MDA-N
NCI-H460 = system: NCI-H460
NCI/ADR-RES = system: NCI/ADR-RES
OVCAR-8 = system: OVCAR-8
PC-3 = system: PC-3
SK-MEL-28 = system: SK-MEL-28
SNB-75 = system: SNB-75
UACC-257 = system: UACC-257
UACC-62 = system: UACC-62
SW-620 = system: SW-620
NCI-H226 = system: NCI-H226

Measured: GI50

CCOP(=O)(Nc1ccc(-c2ccccc2)cc1)OCC
inactive: BT-549 > 100 µM | DU-145 > 100 µM | EKVX 65 µM | HOP-62 > 100 µM | IGROV-1 71.3 µM | MCF7 > 100 µM | MDA-MB-435 91.6 µM | MDA-N 88.9 µM | NCI-H460 > 100 µM | NCI/ADR-RES > 100 µM | OVCAR-8 > 100 µM | PC-3 86.5 µM | SK-MEL-28 > 100 µM | SNB-75 74.3 µM | UACC-257 > 100 µM | UACC-62 > 100 µM

CCOC(=O)c1nc2c3c(ncn2n1)Oc1c(c(-c2ccccc2)nn1-c1ccccc1)C3c1ccc(OC)c(OC)c1 (stereo unspecified)
inactive: BT-549 36.3 µM | DU-145 > 100 µM | EKVX 50.4 µM | HOP-62 16.3 µM | IGROV-1 52.1 µM | MCF7 > 100 µM | MDA-MB-435 > 100 µM | MDA-N > 100 µM | NCI-H460 22.3 µM | NCI/ADR-RES 57.7 µM | OVCAR-8 25.9 µM | PC-3 > 100 µM | SK-MEL-28 49.2 µM | SNB-75 31.3 µM | SW-620 > 100 µM | UACC-257 > 100 µM | UACC-62 48.6 µM

COc1ccc2c(c1)C1Oc3ccccc3CC1(O)CO2 (stereo unspecified)
inactive: BT-549 > 100 µM | DU-145 > 100 µM | EKVX > 100 µM | HOP-62 > 100 µM | IGROV-1 > 100 µM | MCF7 > 100 µM | MDA-MB-435 > 100 µM | MDA-N > 100 µM | NCI-H226 > 100 µM | NCI/ADR-RES > 100 µM | OVCAR-8 > 100 µM | PC-3 > 100 µM | SNB-75 > 100 µM | SW-620 > 100 µM | UACC-257 > 100 µM | UACC-62 > 100 µM

CSC1(SC)CCCCCCCCCCC1
inactive: BT-549 60.3 µM | DU-145 55.3 µM | EKVX 39 µM | HOP-62 49.7 µM | IGROV-1 41.8 µM | MCF7 21.3 µM | MDA-MB-435 38.9 µM | MDA-N 42.8 µM | NCI-H226 > 100 µM | NCI-H460 29.8 µM | NCI/ADR-RES 41.2 µM | OVCAR-8 45.5 µM | PC-3 40.9 µM | SK-MEL-28 44.9 µM | SW-620 44.6 µM | UACC-257 27.5 µM | UACC-62 46 µM

CC(C)(C)C1CCC2c3c([nH]c4ccccc34)C3C(=O)N(c4ccccc4[N+](=O)[O-])C(=O)C3C2C1 (stereo unspecified)
inactive: BT-549 21.7 µM | DU-145 8.39 µM | EKVX 11.4 µM | HOP-62 4.53 µM | IGROV-1 16.7 µM | MCF7 3.1 µM | MDA-MB-435 19.1 µM | MDA-N 13.2 µM | NCI-H226 20.2 µM | NCI-H460 4.25 µM | NCI/ADR-RES 12.7 µM | OVCAR-8 16.6 µM | PC-3 7.6 µM | SW-620 11.5 µM | UACC-257 22.2 µM | UACC-62 12.2 µM

Oc1ccc(-c2ccccc2)nn1
inactive: BT-549 > 100 µM | DU-145 > 100 µM | EKVX > 100 µM | HOP-62 > 100 µM | IGROV-1 > 100 µM | MDA-MB-435 > 100 µM | MDA-N > 100 µM | NCI-H460 > 100 µM | NCI/ADR-RES > 100 µM | OVCAR-8 > 100 µM | PC-3 > 100 µM | SK-MEL-28 > 100 µM | SW-620 > 100 µM | UACC-257 > 100 µM | UACC-62 > 100 µM

Cc1cn(C2CC(O)C(Cn3cc(Cn4ncc(=O)[nH]c4=O)nn3)O2)c(=O)[nH]c1=O (stereo unspecified)
inactive: BT-549 > 100 µM | DU-145 > 100 µM | EKVX > 100 µM | HOP-62 > 100 µM | IGROV-1 > 100 µM | MCF7 > 100 µM | MDA-MB-435 > 100 µM | MDA-N > 100 µM | NCI-H226 > 100 µM | NCI/ADR-RES > 100 µM | OVCAR-8 > 100 µM | PC-3 > 100 µM | SK-MEL-28 > 100 µM | SNB-75 > 100 µM | SW-620 > 100 µM | UACC-257 > 100 µM | UACC-62 > 100 µM

COc1ccc2c3c1O[C@H]1C(=O)C=CC4(n5[nH]c(=O)n(-c6ccccc6)c5=O)C(C2)N(C)CCC314 (stereo partly specified)
inactive: BT-549 > 100 µM | DU-145 > 100 µM | EKVX > 100 µM | HOP-62 > 100 µM | IGROV-1 > 100 µM | MCF7 > 100 µM | MDA-MB-435 > 100 µM | MDA-N > 100 µM | NCI-H226 > 100 µM | NCI/ADR-RES > 100 µM | OVCAR-8 > 100 µM | PC-3 > 100 µM | SK-MEL-28 > 100 µM | SW-620 > 100 µM | UACC-62 > 100 µM

CC(C)(C)O/N=C/c1cc(NC(=S)c2ccccc2)ccc1Cl
inactive: BT-549 15.6 µM | DU-145 17.3 µM | EKVX 15.2 µM | HOP-62 13.7 µM | IGROV-1 12.1 µM | MCF7 22.9 µM | MDA-MB-435 27.2 µM | MDA-N 14.2 µM | NCI-H226 16.8 µM | NCI-H460 6.89 µM | NCI/ADR-RES 15.6 µM | OVCAR-8 17.9 µM | PC-3 16.4 µM | SK-MEL-28 14 µM | SW-620 18.7 µM | UACC-257 13.1 µM | UACC-62 14.6 µM

N#CC1C(=O)N(c2ccccc2)NC12OC(=O)c1ccncc12 (stereo unspecified)
inactive: BT-549 > 20 µM | DU-145 > 20 µM | EKVX > 20 µM | IGROV-1 > 20 µM | MCF7 > 20 µM | MDA-MB-435 > 20 µM | MDA-N > 20 µM | NCI-H226 > 20 µM | NCI-H460 > 20 µM | NCI/ADR-RES > 20 µM | OVCAR-8 > 20 µM | PC-3 > 20 µM | SK-MEL-28 > 20 µM | SW-620 > 20 µM | UACC-257 > 20 µM | UACC-62 > 20 µM

COc1ccc(/N=N/c2c(C)c(C#N)c(=S)n(C3OC(COC(C)=O)C(OC(C)=O)C(OC(C)=O)C3OC(C)=O)c2-c2ccccc2)cc1 (stereo unspecified)
inactive: BT-549 5.33 µM | DU-145 7.03 µM | HOP-62 11.6 µM | MCF7 4.62 µM | MDA-MB-435 10.3 µM | MDA-N 9.1 µM | NCI-H460 4.76 µM | NCI/ADR-RES 3.39 µM | PC-3 5.98 µM | SK-MEL-28 7.98 µM | SW-620 2.92 µM | UACC-257 22.4 µM

CCCc1cc(COC)c(C#N)c(O)n1
inactive: BT-549 > 100 µM | DU-145 > 100 µM | EKVX > 100 µM | HOP-62 > 100 µM | IGROV-1 > 100 µM | MCF7 > 100 µM | MDA-MB-435 > 100 µM | MDA-N > 100 µM | NCI-H226 17.5 µM | NCI-H460 > 100 µM | NCI/ADR-RES > 100 µM | OVCAR-8 > 100 µM | PC-3 > 100 µM | SK-MEL-28 > 100 µM | SW-620 > 100 µM | UACC-257 > 100 µM | UACC-62 > 100 µM
